Patent publication US20210169848A1, “USE OF NEUROKININ-1 ANTAGONISTS TO TREAT PRURITUS” (VYNE THERAPEUTICS INC., priority 2018, published 2021)

Key:
patients with pruritus = assay: Pooled clinical studies, age-related effects of serlopitant (NRS change, NRS 4-point responder rate); type: in vivo, human; settings: older patients (e.g., 40 years or older) compared with younger patients; pooled 1 mg and 5 mg
Method: Data obtained from the clinical studies described in Examples 6-8 for patients administered 1 mg and 5 mg serlopitant were pooled and evaluated on the basis of the age of the subjects.

[1] = test system: subjects with idiopathic pruritus; assay: Phase II randomized, double-blind, placebo-controlled clinical study of serlopitant for chronic pruritus (post hoc WI-NRS 4-point responder analysis); type: in vivo, human; settings: for WI-NRS 4-point Responder Rate at Week 6: 6 weeks, 3-tablet loading dose Day 1
[2] = cited from earlier work

CC(O[C@H]1CC[C@@H]2CN(C3=CC(=O)CC3)C[C@H]2[C@@H]1c1ccc(F)cc1)c1cc(C(F)(F)F)cc(C(F)(F)F)c1 (stereo partly drawn) [serlopitant, 3-[(3aR,4R,5S,7aS)-5-[(1R)-1-[3,5-bis(trifluoromethyl)phenyl]cthoxy]-4-(4-fluorophenyI)-1,3,3a,4,5,6,7,7a-octahydroisoindol-2-yl]cyclopent-2-en-1-one]
response to serlopitant therapy as function of age (NRS change from baseline, NRS 4-point Responder Rate) (patients with pruritus): responded better
WI-NRS 4-point Responder Rate at Week 6 ([1]; all patients, 0.25 mg once daily oral): 38.5% (n = 52)
WI-NRS 4-point Responder Rate at Week 6 ([1]; all patients, 1 mg once daily oral): 32.7% (n = 55)
WI-NRS 4-point Responder Rate at Week 6 ([1]; all patients, 5 mg once daily oral): 46.2% (n = 52)
WI-NRS 4-point Responder Rate at Week 6 ([1]; patients with inflammatory skin disease, 0.25 mg once daily oral): 30.8% (n = 26)
WI-NRS 4-point Responder Rate at Week 6 ([1]; patients with inflammatory skin disease, 1 mg once daily oral): 29.6% (n = 27)
WI-NRS 4-point Responder Rate at Week 6 ([1]; patients with inflammatory skin disease, 5 mg once daily oral): 33.3% (n = 18)
response to serlopitant therapy, patients without vs with inflammatory skin disease ([1]; patients without inflammatory skin disease compared with patients with inflammatory skin disease): appeared to respond better
WI-NRS 4-point Responder Rate at Week 6 ([1]; patients without inflammatory skin disease, 0.25 mg once daily oral): 46.2% (n = 26)
WI-NRS 4-point Responder Rate at Week 6 ([1]; patients without inflammatory skin disease, 1 mg once daily oral): 35.7% (n = 28)
WI-NRS 4-point Responder Rate at Week 6 ([1]; patients without inflammatory skin disease, 5 mg once daily oral): 52.9% (n = 34)

C[C@@H](O[C@H]1CC[C@@H]2CN(C3=CC(=O)CC3)C[C@H]2[C@@H]1c1ccc(F)cc1)c1cc(C(F)(F)F)cc(C(F)(F)F)c1 [Form I]
thermodynamic stability of polymorph ([2]; Form I relative to Form II of free base serlopitant): thermodynamically more stable below 70 °C
hygroscopicity ([2]; all tested relative humidity conditions): non-hygroscopic
